Test results from patent US5679644A, “Methods of treating diseases using triterpenoid acid derivatives” (Glycomed Incorporated, priority 1995, dated 1997).
Several values for one entry are separate records, joined by “and”; a condition that tells them apart may be missing. Identical values can stand only once. Entries after “also recorded” stand apart in the source; their conditions may differ. Each block holds one molecule with its values, some of them ahead of it.

Assays:
[1] = J. Med. Chem. (1974) 17(2):184-191; cited from earlier work
5-Lipoxygenase [2] = target: T1, 5-Lipoxygenase (Rattus norvegicus, UniProt P12527); test: Inhibition of 5-Lipoxygenase, crude enzyme preparation from rat basophilic leukemia cells (RBL-1); type: biochemical
T1 construct: crude enzyme preparation from rat basophilic leukemia cells (RBL-1); endogenous in cells; host or cells: RBL-1 (rat basophilic leukemia cells)
T1 sequence (P12527 1-673): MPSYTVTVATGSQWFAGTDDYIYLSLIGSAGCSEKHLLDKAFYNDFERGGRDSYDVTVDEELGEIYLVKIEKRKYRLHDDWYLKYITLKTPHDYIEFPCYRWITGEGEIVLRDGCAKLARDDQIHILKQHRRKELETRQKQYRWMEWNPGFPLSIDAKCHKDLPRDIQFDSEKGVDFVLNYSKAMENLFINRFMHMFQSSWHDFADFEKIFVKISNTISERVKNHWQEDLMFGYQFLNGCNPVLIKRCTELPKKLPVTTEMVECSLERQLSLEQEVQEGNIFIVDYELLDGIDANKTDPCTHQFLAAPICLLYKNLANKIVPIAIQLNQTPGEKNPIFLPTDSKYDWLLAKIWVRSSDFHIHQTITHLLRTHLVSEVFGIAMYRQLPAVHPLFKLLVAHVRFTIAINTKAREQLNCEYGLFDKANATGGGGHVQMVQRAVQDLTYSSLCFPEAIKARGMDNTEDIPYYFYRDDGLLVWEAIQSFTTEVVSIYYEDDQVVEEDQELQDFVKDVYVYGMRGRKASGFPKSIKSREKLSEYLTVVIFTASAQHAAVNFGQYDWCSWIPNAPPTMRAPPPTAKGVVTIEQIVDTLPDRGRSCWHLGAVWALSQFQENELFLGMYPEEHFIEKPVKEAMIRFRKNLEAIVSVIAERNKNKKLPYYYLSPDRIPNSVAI
Procedure: Thus, compounds that inhibit 5-lipoxygenase will have significant medical applications that require regulating or lowering leukotriene levels. Thus, the compounds of the instant invention were assayed for their capacity to inhibit 5-lipoxygenase. 5-Lipoxygenase assays were run using a crude enzyme preparation from rat basophilic leukemia cells (RBL-1) ([…]. and Samuelsson, B. Proc. Natl. Acad. Sci. […] W. and […]. Biol. Chem. (1985) 260:11554-11559). Test compounds were pre-incubated with the enzyme for 5 minutes at room temperature and the reaction is initiated by addition of substrate, […]. Following an 8 minute incubation at room temperature, the reaction was terminated by addition of NaOH, and absorbance read at 234 nm to determine levels of 5-HETE. Compounds were screened at 50 μM.

5-lipoxygenase [3] = conditions: Sotomatsu et al. 1959; Inoue et al. 1986; cited from earlier work
E-Selectin = E-Selectin chimera binding to fixed LS174T colon carcinoma cells; type: cell-based; conditions: for IC50: lowest concentration from serial two-fold dilutions which inhibits by 50% or more relative to control, range, read-out: IC50 of Compound in Assay of E-Selectin Binding To Fixed LS174T Colon Carcinoma Cells (Range); for interference with cancer cell binding to E-selectin (in words): LS174T colon carcinoma cells
Procedure: Experiments were conducted to determine the capacity of the invention compounds to interfere with the binding of cancer cells to E-selectin. The compounds were dissolved in dimethylformamide (DMF) prior to being assayed. […] The mixture was rotated briskly on a rotary platform at room temperature for 30-60 minutes. Particulate matter was then removed by centrifugation, and the soluble fraction was transferred onto 96-well microtiter plates containing glutaraldehyde fixed LS174T colon carcinoma cells. […] Plates were developed in the dark and read at 405 nm. […] DMF (vehicle) typically had no effect. […] For all but 18-beta-glycyrrhetinic acid the compounds had low IC50 values, thus indicating their suitability for the treatment or prevention of certain forms of metastatic cancers.

P-selectin [4] = test: P-selectin binding to HL-60 cells; type: cell-based; conditions: HL-60 assay; for IC50: P-selectin 200 ng/ml, read-out: IC50 for interfering with P-selectin binding to HL-60 cells
Procedure: (§1) In addition to E-selectin binding, certain of the invention compounds were tested for their capacity to inhibit P-selectin binding to cancer cells, and to a chemical known to bind to P-selectin, 2,3 sLex. The following materials and procedures were used.
(§2) Compound Preparation. Compound (5) of Example 5, and compound (8) of Example 8 were solubilized in DMF to yield a 100 mM solution.
(§3) P-Selectin Detection Solutions. Goat F(ab')2 anti-human IgG (Fc spec.)biotin and streptavidin-AP were diluted 1:1000 in 1% BSA-TBS with 1 mM Ca. An Elisa assay was utilized to measure P-selectin binding to 2,3 sLex, and P-selectin was added at 300 ng/ml. An Elisa assay was also used to assay for the capacity of the invention compounds to inhibit cancer cell binding to P-selectin. HL-60 cancer cells were used, and P-selectin was added at 200 ng/ml.
(§4) Plate Preparation. 2,3 sLex was coated at 30 pmoles/well to Probind microtiter plates for Elisa. The glycolipid was added at 50 μl/well in 50% MeOH and allowed to evaporate overnight. Elisa plates and HL-60 assay plates were blocked with 5% BSA-TBS Ca^++ for more than an hour at room temperature. The plates were washed with TBS without Ca^++.
Cell Preparation. HL-60 cells were harvested by centrifugation, washed with TBS no Ca^++, counted, and the density adjusted to 2×10^6 /ml in 1% BSA-TBS Ca^++.
(§5) Assay. Briefly, the assays were conducted as follows. Compounds (5) and (8) were added to P-selectin detection solutions at 4, 2, 1, 0.5, 0.25 and 0.125 mM for the HL-60 based assay, and at 2, 1, 0.5, 0.25, 0.125 and 0.063 mM for the assay involving 2,3 sLex. DMF solutions were added directly to 1% BSA/TBS-Ca for dilutions through 0.5 mM. Lower concentrations were made in serial two-fold dilutions in BSA-TBS. These solutions were incubated at room temperature on a rotating platform for 1 hour, centrifuged to pellet particulate matter, and then added in triplicate for 2,3 sLex coated plates, or quadruplicate for HL-60 cells at 50 μl/well. An equal volume of HL-60 cells was added to wells for the cell based assay. The 2,3 sLex coated plates were incubated at 37° C. for 45 minutes, washed 3× with TBS, and 50 μl of substrate added to each well. Plates with HL-60 cells were incubated at 4° C. for 1 hour, the cells pelleted by centrifugation and washed 3× with TBS. For both assays, substrate was added at 75 μl/well. After color developed to an appropriate intensity, 50 μl/well was transferred to another plate for O.D. determination at 405 nm.

[5] = system: arachidonic acid-induced ear swelling; test: Arachidonic acid (AA) murine skin (ear) inflammation model, topical administration; type: in vivo; conditions: for anti-inflammatory activity (in words): arachidonic acid murine skin inflammation model
Procedure: Using the arachidonic acid (AA), murine skin inflammation model, described by Harris, R. R. et al. (Skin Pharmacol (1990) 3:2940) the anti-inflammatory activity of 1-[3-O-(18-β-Glycyrrhetinic acid)]-2-(α-L-C-methylfucopyranose)-2',3'-propanediol (5) was tested. For comparison, 18-β-glycyrrhetinic acid was also tested. All compounds were dissolved at 100 mg/mL in methanol or chloroform (18-β-glycyrrhetinic acid) except compound (5) which was at 0.80 mg/mL. 10 μL of each compound was applied to the ear. AA was applied alone, or followed immediately with 1-[3-O-(18-β-Glycyrrhetinic acid)]-2-(α-L-C-methylfucopyranose)-2',3'-propanediol (5) or 18-β-glycyrrhetinic acid. 90 minutes later a 6 mm disk of each ear was removed and weighed.

P-selectin [6] = test: Elisa of P-selectin binding to 2,3 sLex; conditions: for IC50: Elisa, P-selectin 300 ng/ml, read-out: IC50 for inhibiting P-selectin binding to 2,3 sLex
Procedure: as §1, §2, §3, §4
as §5, with “Plates with HL-60 cells were incubated at 4° C. for 1 hour, the cells pelleted by centrifugation and washed 3× with TBS. For both assays, substrate was added at 75 μl/well. After color developed to an appropriate intensity, 50 μl/well was transferred to another plate for O.D. determination at 405 nm.” left out

Structure (SMILES): CC1(C)[C@@H](O)CC[C@]2(C)[C@H]3CC=C4[C@@H]5C[C@@](C)(C(=O)O)CC[C@]5(C)CC[C@@]4(C)[C@]3(C)CC[C@@H]12 [11-Deoxoglycyrrhetinic acid]
aldosterone (DCA)-like activity (in words) [1]: does not substantially show the DCA activity of the parent compound

Structure (SMILES): CC1(C)[C@@H](O)CC[C@]2(C)[C@H]3C(=O)C=C4[C@@H]5C[C@@](C)(C(=O)O)CC[C@]5(C)CC[C@@]4(C)[C@]3(C)CC[C@@H]12 [Glycyrrhetinic acid]
inhibition of enzymes involved in leukotriene biosynthesis, including 5-lipoxygenase (in words) (5-lipoxygenase [3]): shown to inhibit enzymes involved in leukotriene biosynthesis, including 5-lipoxygenase activity

Structure (SMILES): CC1(C)[C@@H](O)CC[C@]2(C)[C@H]3C(=O)C=C4[C@@H]5C[C@@](C)(C(=O)O)CC[C@]5(C)CC[C@@]4(C)[C@]3(C)CC[C@@H]12 [18-β-glycyrrhetinic acid]
IC50 (E-Selectin): 125 to 500 µM
inhibition at 100 µM (5-Lipoxygenase [2]): 36%
inhibition at 1000 µM (5-Lipoxygenase [2]): 81%

Structure (SMILES): C[C@@H]1O[C@@H](CC(O)(CO)CO[C@H]2CC[C@]3(C)[C@H]4C(=O)C=C5[C@@H]6C[C@@](C)(C(=O)O)CC[C@]6(C)CC[C@@]5(C)[C@]4(C)CC[C@H]3C2(C)C)[C@@H](O)[C@H](O)[C@@H]1O (stereo partly drawn) [Compound (5), 1-[3-O-(18-β-Glycyrrhetinic acid)]-2-(α-L-C-methylfucopyranose)-2',3'-propanediol]
interference with P-selectin binding to HL-60 cells (in words) (P-selectin [4]): interfered with P-selecting binding to HL-60 cells in a dose dependent manner, but was again less effective than compound (8)
IC50 (P-selectin [4]): ~2000 µM
anti-inflammatory activity (in words) [5]: significant anti-inflammatory activity
percent inhibition of swelling caused by AA alone ([5]; topical, 10 μL of 0.80 mg/mL solution, 90 minutes): about 71%
% Inhibition of Swelling ([5]; topical, arachidonic acid ear model, 800 μg applied): 71.3%
interference with cancer cell binding to E-selectin (in words) (E-Selectin): markedly lower IC50 values relative to 18-beta-glycyrrhetinic acid
IC50 (E-Selectin): 60 to 125 µM
inhibition at 100 µM (5-Lipoxygenase [2]): 20%
inhibition at 1000 µM (5-Lipoxygenase [2]): 74%
inhibitory activity relative to glycyrrhizin (in words) (5-Lipoxygenase [2]; both concentrations tested): significantly greater inhibitory activity
inhibition of P-selectin binding to sLex (in words) (P-selectin [6]): did inhibit P-selectin binding to sLex, it was less effective than compound (8)
IC50 (P-selectin [6]): < 1000 µM and > 500 µM

More lines, main results first:

inhibition at 100 µM (5-Lipoxygenase [2]): 9%
inhibition at 1000 µM (5-Lipoxygenase [2]): 31%
Structure (SMILES): CC1(C)[C@@H](O[C@H]2O[C@H](C(=O)O)[C@@H](O)[C@H](O)[C@H]2O[C@@H]2O[C@H](C(=O)O)[C@@H](O)[C@H](O)[C@H]2O)CC[C@]2(C)[C@H]3C(=O)C=C4[C@@H]5C[C@@](C)(C(=O)O)CC[C@]5(C)CC[C@@]4(C)[C@]3(C)CC[C@@H]12 [Glycyrrhizin]

IC50 (E-Selectin): 60 to 125 µM
Structure (SMILES): CC(CO[C@H]1CC[C@]2(C)[C@H]3C(=O)C=C4[C@@H]5C[C@@](C)(C(=O)O)CC[C@]5(C)CC[C@@]4(C)[C@]3(C)CC[C@H]2C1(C)C)C[C@@H]1O[C@@H](C)[C@@H](O)[C@@H](O)[C@@H]1O (stereo partly drawn) [(3), 1-[3-O-(18-β-Glycyrrhetinic acid)]-2-(α-L-C-methylfucopyranose)-propane]
anti-inflammatory activity (in words) [5]: significant anti-inflammatory activity
interference with cancer cell binding to E-selectin (in words) (E-Selectin): markedly lower IC50 values relative to 18-beta-glycyrrhetinic acid

IC50 (P-selectin [4]): ~750 µM
IC50 (E-Selectin): 60 to 250 µM
IC50 (P-selectin [6]): ~125 µM
Structure (SMILES): C[C@@H]1O[C@@H](CC(=O)CO[C@H]2CC[C@]3(C)[C@H]4C(=O)C=C5[C@@H]6C[C@@](C)(C(=O)O)CC[C@]6(C)CC[C@@]5(C)[C@]4(C)CC[C@H]3C2(C)C)[C@@H](O)[C@H](O)[C@@H]1O [(8), 1-[3-O-(18-β-Glycyrrhetinic acid)]-2-oxo-2-(α-L-C-methylfucopyranose)-ethane]
interference with P-selectin binding to HL-60 cells (in words) (P-selectin [4]): interfered with P-selectin binding to HL-60 cells in a dose dependent way
anti-inflammatory activity (in words) [5]: activity similar to compounds (3) and (5); also recorded: significant anti-inflammatory activity
